# How the values were obtained:
# [1] = Permeation of Fpx across fresh intestinal tissue in Ussing-type chambers; format: in vitro ADME, male Sprague Dawley rats
# Protocol: The permeation of Fpx in solution was investigated through the intestinal epithelium at 37°C, in the two directions (mucosal-to-serosal, M-S, absorptive direction and serosal-to-mucosal, S-M, secretory direction) and in presence or not of verapamil, an inhibitor of P-gp (P-glycoprotein) (Fig. 3).
# Ussing-type chambers were used to evaluate the permeation of Fpx in fresh intestinal tissues, under the free form and loaded in NPs. For permeation studies non fasting male Sprague Dawley rats weighting 250 to 300 g were used. After sacrificing the rats, jejunum from fresh small intestine was excised and rinsed with chilled physiological solution (isotonic Sorensen's Phosphate buffer solution: 0.2 mM Na2HPO4; 0.2 mM NaH2PO4, H2O with a pH of 6.8). The excised intestine was cut into segments of 2 - 3 cm length and mounted in Ussing chamber (0.75 cm^2 surface area) bathed with Sorensen buffer pH 6.8 in mucosal and serosal sides. The system was maintained at 37°C and continuously oxygenated with O2/CO2 (95% /5%). After equilibration at the temperature of the experiment (15 min), Fpx in solution or loaded in NPs at the concentration of 2 mg/mL were added to the donor compartment. For this purpose, 1.2 mL of Fpx:Sq^+ NPs (at Fpx concentration of 5 mg/mL were diluted in 1.8 mL of Sorensen buffer pH 6.8 prior to the addition to the donor chamber. After 0, 30, 60, 90, 120, 150 and 180 min, 500 µL samples were taken out from the acceptor chambers and replaced with the same volume of fresh transport medium pre-equilibrated at 37°C. The samples were stored at 4°C until analysis. Fpx was quantified by the Azure A assay and Anti-Xa assay. The influence of verapamil was investigated on the intestinal permeation of Fpx in solution and loaded in NPs. For this purpose, verapamil was added to the Sorensen buffer at the concentration of 0.1 mM in the serosal compartment five minutes before the experiment.
# Thus, figure 3 is a diagram showing a comparison of the permeation of Fpx across the intestinal tissue under the following experimental conditions: mucosal-to-serosal direction (M-S, continuous lines); serosal-to-mucosal direction (S-M, broken line) and in presence (open symbols) or in absence (filled symbols) of verapamil. Donor chambers contained initially 2 mg/mL of Fpx. Data represent means ± SEM of at least six independent experiments.
# Donor chambers contained 2 mg/mL of Fpx and Sq^+ in molar ratio Fpx to Sq^+ 1:6. Data represent means ± SEM of at least six independent experiments.
# At last, figure 5 represents a diagram showing net fluxes of Fpx in free form or in Fpx:Sq+ NPs in the presence or in the absence of verapamil when added in serosal side at 180 min. Values are indicated as means SEM at least six experiments. (** p< 0.05) Fpx:Sq^+ NPs vs Fpx:Sq NPs + verapamil; (* p< 0.05) Fpx vs Fpx:Sq^+ NPs; (**** p<0.05) Fpx + verapamil vs Fpx.
# [2] = Plasma Fpx concentration (anti-FXa assay) after oral and intravenous administration of aqueous nanoparticulate suspensions; format: in vivo, male Sprague-Dawley rats
# Protocol: The anticoagulant activity of Fpx:Sq^+ aqueous nanoparticulate suspensions of example 4 was evaluated in vivo after oral and intravenous (IV) administration in male Sprague-Dawley rats. The following formulations were administrated orally to the rats (n=4) with the help of feeding needle (Harvard Apparatus, France): NPs at the optimized ratio 1:6 at 25 mg/kg (eq. Fpx) and 50 mg/kg (eq. Fpx), Fpx saline solution at 50 mg/kg and isotonic sodium chloride solution as control. The volume of the administrated solution was 1 mL per 100 g of the rat weight. Blood samples were periodically taken from the jugular vein after anesthesia with isoflurane and the plasma concentration of active Fpx was estimated using an anti-FXa assay. Additionally, a saline solution of Fpx and NPs at the optimized ratio 1:6, both at 200 µg/kg (eq. Fpx) were injected intravenously to the rats (n=3) through the tail vein after anesthesia with isoflurane. Blood samples were periodically taken and the plasma concentration of active Fpx was estimated using an anti-FXa assay. […]
compound,measurement,setting,value
"CO[C@H]1O[C@H](COS(=O)(=O)O)[C@@H](O[C@@H]2O[C@@H](C(=O)O)[C@@H](O[C@H]3O[C@H](COS(=O)(=O)O)[C@@H](O[C@@H]4O[C@H](C(=O)O)[C@@H](O[C@H]5O[C@H](COS(=O)(=O)O)[C@@H](O)[C@H](O)[C@H]5NS(=O)(=O)O)[C@H](O)[C@H]4O)[C@H](OS(=O)(=O)O)[C@H]3NS(=O)(=O)O)[C@H](O)[C@H]2OS(=O)(=O)O)[C@H](O)[C@H]1NS(=O)(=O)O [Fpx, Fondaparinux]",permeated Fpx concentration,"[1]; M-S direction, 120 min, absence of verapamil, donor 2 mg/mL Fpx, 37°C",4.5 µg/mL
same,permeated Fpx concentration,"[1]; M-S direction, 180 min, absence of verapamil, donor 2 mg/mL Fpx, 37°C",4.9 µg/mL
same,permeated Fpx concentration,"[1]; M-S direction, 180 min, verapamil 0.1 mM in the receptor (serosal) compartment",12.6 µg/mL
same,permeated Fpx concentration,"[1]; S-M direction, 180 min, absence of verapamil, donor 2 mg/mL Fpx, 37°C",7.8 µg/mL
same,factor of increase of Fpx fluxes in the presence of verapamil,"[1]; net fluxes at 180 min, verapamil in serosal side, vs free Fpx",4.2
same,Cmax,"[2]; male, Sprague-Dawley, rat, plasma, 200 ug/kg, intravenous, 200 µg/kg (eq. Fpx), rats n=3, read-out: maximum plasma concentration (Cmax)",160 ng/mL
same,oral absorption (concentration-time profile vs control group),"[2]; oral, saline solution 50 mg/kg",not absorbed

# Reference: patent EP2742955A1, “Nanoparticles based on bioconjugate of GAG” (Centre National de la Recherche Scientifique, priority 2012, dated 2014)
